Like-named read-outs stand apart in the source and are kept apart here.

One data set addresses T1, OATP2B1 (Homo sapiens, UniProt O94956).
T1 construct: expressed in transfected cells; host or cells: HEK293 (recombinant baculovirus-mediated transduction)
T1 sequence (O94956 1-709): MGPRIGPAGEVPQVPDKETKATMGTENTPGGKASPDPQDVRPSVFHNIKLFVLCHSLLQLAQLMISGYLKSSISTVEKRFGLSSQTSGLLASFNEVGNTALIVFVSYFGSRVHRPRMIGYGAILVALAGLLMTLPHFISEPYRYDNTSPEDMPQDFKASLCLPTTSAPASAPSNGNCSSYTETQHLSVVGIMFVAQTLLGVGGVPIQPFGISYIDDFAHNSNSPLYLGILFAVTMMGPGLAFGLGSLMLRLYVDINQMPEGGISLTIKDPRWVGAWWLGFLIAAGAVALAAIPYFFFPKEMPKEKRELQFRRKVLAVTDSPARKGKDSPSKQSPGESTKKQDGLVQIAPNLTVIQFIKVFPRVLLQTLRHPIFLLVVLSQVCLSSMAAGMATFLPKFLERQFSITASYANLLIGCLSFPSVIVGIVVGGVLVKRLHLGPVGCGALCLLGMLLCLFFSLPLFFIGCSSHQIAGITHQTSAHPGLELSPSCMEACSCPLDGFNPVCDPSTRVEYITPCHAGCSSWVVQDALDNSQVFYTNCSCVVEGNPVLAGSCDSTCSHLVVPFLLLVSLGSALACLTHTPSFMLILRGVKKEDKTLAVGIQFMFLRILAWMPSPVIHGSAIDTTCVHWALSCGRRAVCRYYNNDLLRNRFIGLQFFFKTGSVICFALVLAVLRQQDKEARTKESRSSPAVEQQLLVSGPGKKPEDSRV
The data set is described as follows: OATP2B1 inhibition with fluorescent substrate 4′,5′-dibromofluorescein in HEK293 cells. The class given is cell-based. The conditions noted are these: 1 µM 4′,5′-dibromofluorescein, 5 min, 30 min preincubation. As for the experimental part:
8- (2- [Fluoresceinyl]aminoethylthio)adenosine- 3', 5'- cyclic monophosphate (8-Fluo-cAMP) was acquired from Biolog Life Science Institute (Bremen, Germany), 4′,5′-dibromofluorescein was acquired from Sigma-Aldrich (St. Louis, MO, USA) and 2′,7′-dichlorofluorescein was acquired from Santa Cruz Biotechnology (Dallas, TX, USA).
Inhibition studies with fluorescent substrates in OATP transduced HEK293 cells The concentrations of fluorescent probe substrates were 1 µM 2′,7′-dichlorofluorescein for OATP1B1, 2.5 µM 8-Fluo-cAMP for OATP1B3 and 1 µM 4′,5′-dibromofluorescein for OATP2B1, and these concentrations were selected to be within or below of previously reported […]
reported linear ranges of transport for these substrate-transporter combinations.1,2,4 8-Fluo-cAMP was dissolved in ultrapure water, while dimethyl sulfoxide (DMSO) was used for all other compounds. […] For the quantification of fluorescent substrates, cells were lysed with 120 µl of lysis solution (1% Triton X-100, 5 mM EDTA, 150 mM sodium chloride and 150 mM TRIC-hydrochloride and adjusted to pH 8 with sodium hydroxide) for 30 min at 300 RPM shaking before transferring 80 µl of samples to a transparent 96-well plate containing 20 µl of 0.5 M sodium hydroxide. […] The plates were measured with a fluorescent plate reader (Varioskan LUX from ThermoFisher Scientific). […]

The target in another data set is T2, OATP1B1 (Homo sapiens, UniProt Q9Y6L6).
T2 construct: expressed in transfected cells; host or cells: HEK293 (recombinant baculovirus-mediated transduction)
T2 sequence (Q9Y6L6 1-691): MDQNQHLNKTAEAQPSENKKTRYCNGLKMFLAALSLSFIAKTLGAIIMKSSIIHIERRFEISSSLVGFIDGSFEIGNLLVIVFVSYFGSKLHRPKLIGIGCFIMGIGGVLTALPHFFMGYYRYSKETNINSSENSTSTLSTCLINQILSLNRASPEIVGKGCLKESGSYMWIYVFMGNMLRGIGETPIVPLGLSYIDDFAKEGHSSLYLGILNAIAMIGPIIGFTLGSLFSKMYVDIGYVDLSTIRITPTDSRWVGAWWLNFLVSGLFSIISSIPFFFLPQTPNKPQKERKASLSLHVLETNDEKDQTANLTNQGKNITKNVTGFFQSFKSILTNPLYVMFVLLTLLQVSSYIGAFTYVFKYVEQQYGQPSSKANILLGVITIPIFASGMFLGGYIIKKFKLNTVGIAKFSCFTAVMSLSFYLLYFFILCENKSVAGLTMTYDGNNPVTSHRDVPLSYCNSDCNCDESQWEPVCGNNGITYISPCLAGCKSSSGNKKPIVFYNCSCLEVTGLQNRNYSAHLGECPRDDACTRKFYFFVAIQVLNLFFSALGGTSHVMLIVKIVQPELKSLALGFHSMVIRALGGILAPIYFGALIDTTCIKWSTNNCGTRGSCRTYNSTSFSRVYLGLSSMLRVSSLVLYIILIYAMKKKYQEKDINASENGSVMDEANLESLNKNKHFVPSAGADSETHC
The data set is described as follows: Irreversible inhibition (reversibility) assay of OATP1B1. Conditions: for reversibility of OATP1B1 inhibition: wash-out after 15 min preincubation. It is filed as cell-based. As for the experimental part:
were removed and 300 µl of warm TP-buffer was added to each well and incubated for 5 min.
The washing was repeated twice , after which the transport assays were conducted in the presence of 1 µM 2′,7′ -dichlorofluorescein for 5 min. The wells that were pre -incubated with […]
incubated with the vehicle contained three different inhibitor concentrations. After the transport

Setting [1] is: 1 µM 2′,7′-dichlorofluorescein, 5 min, read-out: IC50 OATP1B1, inhibitor present only during the transport assay.
Setting [2] is: cells washed three times before the transport assay, read-out: IC50 OATP1B1, inhibitor present only during the preincubation.

For the molecule `Cc1onc(-c2c(Cl)cccc2Cl)c1C(=O)N[C@@H]1C(=O)N2[C@@H]1SC(C)(C)[C@@H]2C(=O)O` [Dicloxacillin], the values for the IC50 on OATP2B1, on OATP1B1 (setting [1]) and on OATP1B1 (setting [2]) were 37.6 µM, 4.82 µM and 238 µM, respectively. Besides, the “reversibility of OATP1B1 inhibition” value at OATP1B1 is reported as “reversible”.
On the same counts, the results for `Cc1onc(-c2c(F)cccc2Cl)c1C(=O)N[C@@H]1C(=O)N2[C@@H]1SC(C)(C)[C@@H]2C(=O)O` [Flucloxacillin] are 76.4 µM, 15.6 µM, 455 µM and “reversible”.
